According to ChEMBL document CHEMBL5463722, “Data for DCP probe BI-5524” (2023):
Calls of active or inactive are those of the source. No cut-off for these calls is given here.

Legend:
[1] = molecular target: Sodium-dependent noradrenaline transporter (Homo sapiens) (UniProt P23975); assay: norepinephrine transporter Eurofins-Cerep binding assay; set-up: ligand concentration 1 nM; details: Compound concentration 10.0 uM
[2] = species on record: Rattus norvegicus; assay: KV channel Eurofins-Cerep binding assay; set-up: ligand concentration 0.01 nM; details: Compound concentration 10.0 uM
[3] = molecular target: 5-hydroxytryptamine receptor 2B (Homo sapiens) (UniProt P41595); assay: 5-HT2B Eurofins-Cerep binding assay; details: Compound concentration 10.0 uM
[4] = molecular target: Delta-type opioid receptor (Homo sapiens) (UniProt P41143); assay: delta (DOP) Eurofins-Cerep binding assay; set-up: ligand concentration 0.5 nM; details: Compound concentration 10.0 uM
[5] = molecular target: 5-hydroxytryptamine receptor 3A (Homo sapiens) (UniProt P46098); assay: 5-HT3 Eurofins-Cerep binding assay; set-up: ligand concentration 0.5 nM; details: Compound concentration 10.0 uM
[6] = molecular target: Angiotensin-converting enzyme (Homo sapiens) (UniProt P12821); assay: Activity against ACE(HU_AMTCH400) in the Eurofins Cerep SafetyScreen44 (BI) by Photometry (Cerep_3441); details: Compound concentration 10.0 uM
[7] = species on record: Rattus norvegicus; assay: Activity against BZD/CENTR/R in the Eurofins Cerep SafetyScreen44 (BI) by Radioactive Assay (Cerep_28); format: protein-complex assay
[8] = molecular target: Endothelin-1 receptor (Homo sapiens) (UniProt P25101); assay: ETA Eurofins-Cerep binding assay; set-up: ligand concentration 0.03 nM; details: Compound concentration 10.0 uM
Chain of Endothelin-1 receptor (Homo sapiens) (P25101 whole entry): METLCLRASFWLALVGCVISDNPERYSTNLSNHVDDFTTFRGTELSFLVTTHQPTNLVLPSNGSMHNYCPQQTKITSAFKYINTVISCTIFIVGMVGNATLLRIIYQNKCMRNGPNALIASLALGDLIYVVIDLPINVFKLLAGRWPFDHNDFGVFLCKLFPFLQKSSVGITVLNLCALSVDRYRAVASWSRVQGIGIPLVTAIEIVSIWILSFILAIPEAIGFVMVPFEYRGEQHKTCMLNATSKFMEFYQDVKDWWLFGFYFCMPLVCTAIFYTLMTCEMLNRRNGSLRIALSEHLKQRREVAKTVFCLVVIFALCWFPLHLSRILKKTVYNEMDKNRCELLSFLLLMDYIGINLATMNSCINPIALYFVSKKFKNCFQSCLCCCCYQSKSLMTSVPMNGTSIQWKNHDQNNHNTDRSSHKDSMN

[9] = molecular target: Beta-2 adrenergic receptor (Homo sapiens) (UniProt P07550); assay: beta 2 Eurofins-Cerep binding assay
Chain of Beta-2 adrenergic receptor (Homo sapiens) (P07550 whole entry, looked up): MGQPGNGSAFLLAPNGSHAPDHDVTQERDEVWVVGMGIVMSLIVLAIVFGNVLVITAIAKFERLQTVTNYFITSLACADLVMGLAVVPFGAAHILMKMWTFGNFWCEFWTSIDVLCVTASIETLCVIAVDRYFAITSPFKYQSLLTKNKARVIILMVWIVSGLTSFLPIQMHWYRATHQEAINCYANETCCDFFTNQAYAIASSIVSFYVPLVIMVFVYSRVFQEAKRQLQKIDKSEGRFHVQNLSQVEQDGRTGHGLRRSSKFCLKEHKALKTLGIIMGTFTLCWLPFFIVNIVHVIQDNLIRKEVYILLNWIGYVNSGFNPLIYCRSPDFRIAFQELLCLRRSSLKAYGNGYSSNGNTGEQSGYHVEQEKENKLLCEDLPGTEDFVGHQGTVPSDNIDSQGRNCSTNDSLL

[10] = molecular target: T1, Neutrophil elastase (Homo sapiens, UniProt P08246); assay: Inhibition of zymosan-stimulated ELANE activity in human plasma
T1 sequence (P08246 whole entry): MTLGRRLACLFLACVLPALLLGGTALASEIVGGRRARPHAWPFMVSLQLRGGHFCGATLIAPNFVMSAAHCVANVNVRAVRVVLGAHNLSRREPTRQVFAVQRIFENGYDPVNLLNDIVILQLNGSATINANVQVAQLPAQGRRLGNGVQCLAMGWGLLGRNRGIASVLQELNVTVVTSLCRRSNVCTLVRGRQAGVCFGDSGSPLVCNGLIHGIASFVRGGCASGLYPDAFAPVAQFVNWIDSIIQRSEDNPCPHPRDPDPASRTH

[11] = molecular target: T1, Neutrophil elastase; assay: ELANE inhibitor assay (human). (Biochemical assay using purified commercial human ELANE and a fluorescent peptide substrate).
[12] = molecular target: Histamine H1 receptor (Homo sapiens) (UniProt P35367); assay: H1 Eurofins-Cerep binding assay; set-up: ligand concentration 1 nM; details: Compound concentration 10.0 uM
[13] = molecular target: 5-hydroxytryptamine receptor 1A (Homo sapiens) (UniProt P08908); assay: 5-HT1A Eurofins-Cerep binding assay; set-up: ligand concentration 0.5 nM; details: Compound concentration 10.0 uM
Chain of 5-hydroxytryptamine receptor 1A (Homo sapiens) (P08908 whole entry): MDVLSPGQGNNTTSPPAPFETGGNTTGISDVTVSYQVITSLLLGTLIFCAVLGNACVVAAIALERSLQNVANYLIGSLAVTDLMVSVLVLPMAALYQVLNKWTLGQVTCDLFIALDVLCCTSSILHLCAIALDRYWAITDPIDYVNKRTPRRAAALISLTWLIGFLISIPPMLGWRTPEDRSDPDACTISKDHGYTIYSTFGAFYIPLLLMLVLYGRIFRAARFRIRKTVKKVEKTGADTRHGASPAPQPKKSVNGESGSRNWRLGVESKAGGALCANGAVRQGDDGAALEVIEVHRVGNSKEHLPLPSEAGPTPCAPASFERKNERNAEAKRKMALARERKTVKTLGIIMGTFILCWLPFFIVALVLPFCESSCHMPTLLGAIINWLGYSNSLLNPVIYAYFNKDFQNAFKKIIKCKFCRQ

[14] = molecular target: Mu-type opioid receptor (Homo sapiens) (UniProt P35372); assay: mu (MOP) Eurofins-Cerep binding assay; set-up: ligand concentration 0.5 nM; details: Compound concentration 10.0 uM
[15] = molecular target: Histamine H2 receptor (Homo sapiens) (UniProt P25021); assay: H2 Eurofins-Cerep binding assay; set-up: ligand concentration 0.075 nM; details: Compound concentration 10.0 uM
[16] = molecular target: 5-hydroxytryptamine receptor 2A (Homo sapiens) (UniProt P28223); assay: Agonist activity in the Eurofins Cerep SafetyScreen44 (BI) against 5HT2AH_AGON by Scintillation counting (Cerep_471); details: Compound concentration 10.0 uM
[17] = molecular target: 5-hydroxytryptamine receptor 1B (Homo sapiens) (UniProt P28222); assay: 5-HT1B Eurofins-Cerep binding assay; set-up: ligand concentration 1 nM; details: Compound concentration 10.0 uM
[18] = molecular target: D(1A) dopamine receptor (Homo sapiens) (UniProt P21728); assay: D1 Eurofins-Cerep binding assay; set-up: ligand concentration 0.3 nM; details: Compound concentration 10.0 uM
[19] = molecular target: Muscarinic acetylcholine receptor M3 (Homo sapiens) (UniProt P20309); assay: M3 Eurofins-Cerep binding assay; set-up: ligand concentration 0.2 nM; details: Compound concentration 10.0 uM
Chain of Muscarinic acetylcholine receptor M3 (Homo sapiens) (P20309 whole entry, looked up): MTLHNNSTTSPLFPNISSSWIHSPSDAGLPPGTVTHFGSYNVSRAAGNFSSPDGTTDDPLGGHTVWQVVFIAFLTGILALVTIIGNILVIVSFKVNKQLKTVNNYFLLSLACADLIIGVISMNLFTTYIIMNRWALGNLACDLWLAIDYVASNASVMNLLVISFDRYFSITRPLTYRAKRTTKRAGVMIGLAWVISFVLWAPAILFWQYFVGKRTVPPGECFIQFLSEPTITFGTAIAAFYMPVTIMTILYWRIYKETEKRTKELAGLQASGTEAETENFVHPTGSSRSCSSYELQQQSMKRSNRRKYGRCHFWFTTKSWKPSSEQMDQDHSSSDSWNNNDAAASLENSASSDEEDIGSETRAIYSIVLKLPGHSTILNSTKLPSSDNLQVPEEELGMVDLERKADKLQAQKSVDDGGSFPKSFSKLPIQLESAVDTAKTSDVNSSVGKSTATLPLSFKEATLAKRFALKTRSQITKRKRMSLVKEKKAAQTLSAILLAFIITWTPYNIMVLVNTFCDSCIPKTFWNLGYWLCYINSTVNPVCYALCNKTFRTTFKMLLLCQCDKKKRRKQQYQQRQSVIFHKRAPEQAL

[20] = molecular target: Adenosine receptor A2a (Homo sapiens) (UniProt P29274); assay: A2A Eurofins-Cerep binding assay; set-up: ligand concentration 6 nM
Chain of Adenosine receptor A2a (Homo sapiens) (P29274 whole entry): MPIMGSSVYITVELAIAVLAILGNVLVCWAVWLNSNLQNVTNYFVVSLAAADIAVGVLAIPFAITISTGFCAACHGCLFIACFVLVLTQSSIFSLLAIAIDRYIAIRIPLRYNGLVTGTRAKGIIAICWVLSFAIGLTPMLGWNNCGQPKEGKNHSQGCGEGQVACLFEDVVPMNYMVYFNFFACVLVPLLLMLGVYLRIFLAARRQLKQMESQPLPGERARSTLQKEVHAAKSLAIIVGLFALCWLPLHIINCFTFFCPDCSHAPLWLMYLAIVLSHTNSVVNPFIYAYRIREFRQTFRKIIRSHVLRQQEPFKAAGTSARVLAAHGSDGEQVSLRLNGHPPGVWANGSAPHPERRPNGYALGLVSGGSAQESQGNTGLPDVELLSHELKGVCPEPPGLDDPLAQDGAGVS

[21] = molecular target: D(2) dopamine receptor (Homo sapiens) (UniProt P14416); assay: Agonist activity in the Eurofins Cerep SafetyScreen44 (BI) against D2SH_AGON by Scintillation counting (Cerep_1322); details: Compound concentration 10.0 uM
[22] = molecular target: Vasopressin V1a receptor (Homo sapiens) (UniProt P37288); assay: V1a Eurofins-Cerep binding assay; set-up: ligand concentration 0.3 nM; details: Compound concentration 10.0 uM
[23] = molecular target: Muscarinic acetylcholine receptor M1 (Homo sapiens) (UniProt P11229); assay: M1 Eurofins-Cerep binding assay; set-up: ligand concentration 2 nM; details: Compound concentration 10.0 uM
[24] = molecular target: T2, Cholecystokinin receptor type A (Homo sapiens) (UniProt P32238); assay: CCK1 (CCKA) Eurofins-Cerep binding assay; set-up: ligand concentration 0.08 nM
T2 sequence (whole entry): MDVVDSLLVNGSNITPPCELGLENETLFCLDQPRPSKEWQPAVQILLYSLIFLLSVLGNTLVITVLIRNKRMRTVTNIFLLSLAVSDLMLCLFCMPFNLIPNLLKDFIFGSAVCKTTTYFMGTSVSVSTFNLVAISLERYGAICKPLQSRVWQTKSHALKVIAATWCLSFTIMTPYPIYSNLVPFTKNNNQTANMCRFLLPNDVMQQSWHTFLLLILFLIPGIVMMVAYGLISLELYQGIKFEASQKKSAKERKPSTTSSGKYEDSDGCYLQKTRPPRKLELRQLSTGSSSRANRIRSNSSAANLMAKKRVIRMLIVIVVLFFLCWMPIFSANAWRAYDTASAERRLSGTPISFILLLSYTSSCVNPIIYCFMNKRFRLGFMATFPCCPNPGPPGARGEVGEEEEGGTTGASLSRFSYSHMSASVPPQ

[25] = molecular target: Beta-1 adrenergic receptor (Homo sapiens) (UniProt P08588); assay: beta 1 Eurofins-Cerep binding assay; set-up: ligand concentration 0.3 nM
Chain of Beta-1 adrenergic receptor (Homo sapiens) (P08588 whole entry, looked up): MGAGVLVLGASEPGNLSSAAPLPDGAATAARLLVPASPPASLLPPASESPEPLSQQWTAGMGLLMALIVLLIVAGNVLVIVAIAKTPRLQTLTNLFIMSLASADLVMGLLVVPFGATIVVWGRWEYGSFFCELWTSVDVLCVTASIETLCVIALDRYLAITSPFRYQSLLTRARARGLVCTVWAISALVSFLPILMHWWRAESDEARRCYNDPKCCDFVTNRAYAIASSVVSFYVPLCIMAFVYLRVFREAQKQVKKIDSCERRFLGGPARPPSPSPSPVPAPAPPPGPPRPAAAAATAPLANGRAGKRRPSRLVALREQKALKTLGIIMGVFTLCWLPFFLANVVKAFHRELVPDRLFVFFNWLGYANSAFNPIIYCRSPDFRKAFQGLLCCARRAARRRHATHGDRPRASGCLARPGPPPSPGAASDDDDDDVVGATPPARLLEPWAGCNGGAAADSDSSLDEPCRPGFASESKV

[26] = molecular target: Glutamate NMDA receptor (Rattus norvegicus) (UniProt P35439+Q00959+Q00960+Q00961+Q62645+Q8VHN2+Q9R1M7); assay: Inhibitor of NMDA/R in the Eurofins Cerep SafetyScreen44 (BI) by Radioactive Assay (Cerep_66); format: protein-complex assay; details: Compound concentration 10.0 uM
[27] = molecular target: Sodium-dependent dopamine transporter (Homo sapiens) (UniProt Q01959); assay: dopamine transporter Eurofins-Cerep binding assay; details: Compound concentration 10.0 uM
Chain of Sodium-dependent dopamine transporter (Homo sapiens) (Q01959 whole entry): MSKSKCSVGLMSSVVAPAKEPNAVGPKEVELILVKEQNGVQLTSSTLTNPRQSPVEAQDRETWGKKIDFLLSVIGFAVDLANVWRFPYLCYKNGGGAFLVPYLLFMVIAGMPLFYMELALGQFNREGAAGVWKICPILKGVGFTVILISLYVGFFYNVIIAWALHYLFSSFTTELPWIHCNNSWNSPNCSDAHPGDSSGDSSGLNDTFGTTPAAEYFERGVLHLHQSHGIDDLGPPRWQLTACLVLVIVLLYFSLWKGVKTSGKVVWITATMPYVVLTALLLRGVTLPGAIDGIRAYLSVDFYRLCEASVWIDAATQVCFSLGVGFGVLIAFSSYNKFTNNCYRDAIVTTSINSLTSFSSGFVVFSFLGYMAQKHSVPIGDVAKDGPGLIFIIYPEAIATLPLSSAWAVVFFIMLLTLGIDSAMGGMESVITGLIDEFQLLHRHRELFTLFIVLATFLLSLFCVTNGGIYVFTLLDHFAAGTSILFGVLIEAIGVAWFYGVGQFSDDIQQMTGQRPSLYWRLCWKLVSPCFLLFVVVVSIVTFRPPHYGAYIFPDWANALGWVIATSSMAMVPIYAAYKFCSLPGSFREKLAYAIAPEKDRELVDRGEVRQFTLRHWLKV

[28] = molecular target: Muscarinic acetylcholine receptor M2 (Homo sapiens) (UniProt P08172); assay: M2 Eurofins-Cerep binding assay; set-up: ligand concentration 2 nM; details: Compound concentration 10.0 uM
Chain of Muscarinic acetylcholine receptor M2 (Homo sapiens) (P08172 whole entry): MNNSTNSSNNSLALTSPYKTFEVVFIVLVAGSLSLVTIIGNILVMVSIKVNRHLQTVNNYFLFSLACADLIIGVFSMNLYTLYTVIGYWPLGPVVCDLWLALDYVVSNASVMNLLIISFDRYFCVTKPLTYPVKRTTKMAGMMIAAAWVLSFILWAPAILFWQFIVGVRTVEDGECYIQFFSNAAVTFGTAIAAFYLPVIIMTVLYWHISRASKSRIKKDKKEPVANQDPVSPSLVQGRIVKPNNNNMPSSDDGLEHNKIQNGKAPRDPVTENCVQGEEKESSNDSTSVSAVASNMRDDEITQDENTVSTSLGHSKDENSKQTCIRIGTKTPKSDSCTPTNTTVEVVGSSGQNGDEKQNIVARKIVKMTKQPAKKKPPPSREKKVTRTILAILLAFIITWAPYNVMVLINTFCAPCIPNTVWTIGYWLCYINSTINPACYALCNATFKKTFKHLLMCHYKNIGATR

[29] = species on record: Homo sapiens; assay: Agonist activity in the Eurofins Cerep SafetyScreen44 (BI) against N_NEURO_A4B2 by Radioligand Binding (Cerep_3029); format: protein-complex assay; details: Compound concentration 10.0 uM
[30] = molecular target: Caspase-9 (Homo sapiens) (UniProt P55211); details: Compound concentration 1.0 uM
Description: % Enzyme Activity of Caspase 9 in the Reaction Biology protease panel at 10.0 µM

[31] = molecular target: Glucocorticoid receptor (Homo sapiens) (UniProt P04150); assay: GR Eurofins-Cerep binding assay; details: Compound concentration 10.0 uM
Chain of Glucocorticoid receptor (Homo sapiens) (P04150 whole entry): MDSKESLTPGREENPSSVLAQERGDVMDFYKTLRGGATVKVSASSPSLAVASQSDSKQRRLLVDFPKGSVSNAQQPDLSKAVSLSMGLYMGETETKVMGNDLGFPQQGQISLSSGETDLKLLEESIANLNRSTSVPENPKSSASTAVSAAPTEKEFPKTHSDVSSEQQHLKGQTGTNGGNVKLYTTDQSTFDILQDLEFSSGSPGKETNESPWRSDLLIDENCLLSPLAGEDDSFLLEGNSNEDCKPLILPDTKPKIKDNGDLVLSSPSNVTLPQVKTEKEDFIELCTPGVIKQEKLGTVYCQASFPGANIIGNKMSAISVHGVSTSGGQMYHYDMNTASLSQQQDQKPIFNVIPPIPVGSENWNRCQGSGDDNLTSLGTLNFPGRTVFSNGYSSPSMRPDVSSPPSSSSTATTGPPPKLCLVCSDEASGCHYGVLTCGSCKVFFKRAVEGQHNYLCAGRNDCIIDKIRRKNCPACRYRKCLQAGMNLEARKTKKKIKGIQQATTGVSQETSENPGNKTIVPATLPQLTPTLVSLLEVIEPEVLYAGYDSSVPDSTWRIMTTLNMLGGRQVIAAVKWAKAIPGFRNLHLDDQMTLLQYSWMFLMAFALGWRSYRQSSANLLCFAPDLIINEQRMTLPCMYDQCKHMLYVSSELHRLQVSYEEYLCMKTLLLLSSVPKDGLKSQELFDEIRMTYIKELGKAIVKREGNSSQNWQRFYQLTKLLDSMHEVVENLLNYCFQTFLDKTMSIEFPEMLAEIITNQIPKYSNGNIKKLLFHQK

[32] = molecular target: Adrenergic receptor alpha-1 (Rattus norvegicus) (UniProt P15823+P23944+P43140); assay: Inhibitor of ALPHA1/NS/R in the Eurofins SafetyScreen44 (BI) by Radioactive Assay (Old_Cerep_5); format: protein assay
[33] = molecular target: Myeloblastin (Homo sapiens, UniProt P24158); assay: PRTN3 inhibition assay
[34] = molecular target: Type-2 angiotensin II receptor (Homo sapiens) (UniProt P50052); assay: Activity against AT2/H in the Eurofins SafetyScreen44 (BI) by Radioactive Assay (Old_Cerep_7)
Chain of Type-2 angiotensin II receptor (Homo sapiens) (P50052 whole entry): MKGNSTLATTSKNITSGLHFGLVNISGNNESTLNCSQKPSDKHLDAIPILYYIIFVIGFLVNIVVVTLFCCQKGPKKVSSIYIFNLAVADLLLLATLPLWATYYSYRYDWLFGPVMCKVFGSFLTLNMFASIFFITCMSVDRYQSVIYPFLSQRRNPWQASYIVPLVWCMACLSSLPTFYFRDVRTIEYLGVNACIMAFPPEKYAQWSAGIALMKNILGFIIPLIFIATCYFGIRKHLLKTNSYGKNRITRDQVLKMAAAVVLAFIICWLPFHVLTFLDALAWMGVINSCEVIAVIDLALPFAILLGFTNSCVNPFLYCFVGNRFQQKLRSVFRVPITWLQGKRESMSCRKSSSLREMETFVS

[35] = molecular target: Substance-K receptor (Homo sapiens) (UniProt P21452); assay: Activity against NK2/H in the Eurofins SafetyScreen44 (BI) by Radioactive Assay (Old_Cerep_25); details: Compound concentration 10.0 uM
[36] = molecular target: D(3) dopamine receptor (Homo sapiens) (UniProt P35462); assay: D3 Eurofins-Cerep binding assay; details: Compound concentration 10.0 uM

| SMILES | residual activity [1] | residual activity [2] | residual activity [3] | residual activity [4] | residual activity [5] | residual activity ([7]; Compound concentration 10.0 uM) | residual activity [8] | residual activity ([9]; Compound concentration 10.0 uM) | IC50 [10] | IC50 [11] | residual activity [12] | residual activity [13] | residual activity [14] | residual activity [15] | residual activity [16] | residual activity [18] | residual activity [19] | residual activity ([20]; Compound concentration 10.0 uM) | residual activity [21] | residual activity [22] | further results |
| --- | --- | --- | --- | --- | --- | --- | --- | --- | --- | --- | --- | --- | --- | --- | --- | --- | --- | --- | --- | --- | --- |
| CC(C)(O)CNC(=O)N1C(=O)N(c2cccc(C(F)(F)F)c2)C2=C(C(=O)CC2)[C@@H]1c1ccc(C#N)cc1 | 95% | 101% | 97% | 100% | 81% | 101% | 95% | 101% | 492 nM (not active) | 41 nM (not active) | 101% | 91% | 104% | 105% | 111% | 100% | 95% | 109% | 99% | 99% | residual activity [6]: 98%; residual activity [17]: 86%; residual activity [23]: 114%; residual activity ([24]; Compound concentration 10.0 uM): 97%; residual activity ([25]; Compound concentration 10.0 uM): 89%; residual activity [26]: 96%; residual activity [27]: 98%; residual activity [28]: 103%; residual activity [29]: 115%; % Enzyme Activity (relative to DMSO controls, average n=2) [30]: 92.6%; residual activity [31]: 96% |
| CC(C)(O)CNC(=O)N1C(=O)N(c2cccc(C(F)(F)F)c2)C2=C(C(=O)CC2)[C@H]1c1ccc(C#N)cc1 | 98% | 102% | 130% | 101% | 108% | 119% | 99% | 87% | 1.2 nM (active) | 0.5 nM (active) | 108% | 72% | 82% | 114% | 69% | 96% | 84% | 100% | 89% | 102% | residual activity ([32]; Compound concentration 10.0 uM): 97%; residual activity ([32]; Compound concentration 30.0 uM): 103%; IC50 [33]: 367 nM (not active); residual activity ([7]; Compound concentration 30.0 uM): 116%; residual activity ([9]; Compound concentration 30.0 uM): 92%; residual activity ([34]; Compound concentration 10.0 uM): 92%; residual activity ([34]; Compound concentration 30.0 uM): 114%; residual activity ([20]; Compound concentration 30.0 uM): 83%; residual activity [23]: 103%; residual activity ([24]; Compound concentration 10.0 uM): 89%; residual activity ([24]; Compound concentration 30.0 uM): 89%; residual activity ([25]; Compound concentration 10.0 uM): 100%; residual activity ([25]; Compound concentration 30.0 uM): 100%; residual activity [35]: 103%; residual activity [27]: 110%; residual activity [28]: 121%; residual activity [36]: 96%; % Enzyme Activity (relative to DMSO controls, average n=2) [30]: 98.8%; residual activity [31]: 107% |
